Measurements: patent publication US12370158B2, “Analogs of CYP-eicosanoids for use in treating or preventing a disorder associated with neovascularization and/or inflammation” (OMEICOS Therapeutics GmbH, priority 2016, dated 2025)

What was measured:
[1] = Ocular pharmacokinetics of Comp-02 after oral administration in rabbit; format: in vivo, pigmented HY79b rabbits; details: for Comp-02 content (below lower limit of detection): oral; for Cmax / Tmax / AUC / half-life: male, pigmented HY79b, rabbit; for Cmax: single oral 2 mg/kg (0.2 mg/mL); for Tmax / AUC / half-life: single oral 2 mg/kg; for AUC: read-out: AUC1-48 hours; for half-life: calculated from the Tmax value
Procedure: (§1) Study design: To gain insight into the distribution behaviour of synthetic 17,18-EEQ-agonists, ocular pharmacokinetic studies were performed in pigmented HY79b rabbits. Briefly, 15 male rabbits per administration route were anesthetized at the time-points for sampling indicated in tables 2-4 by an intramuscular injection of a mixed solution of xylazine and ketamine. Blood collection was performed by cardiac puncture in K3EDTA tubes and centrifuged at 2000 g, 10 min at 4° C. Approximately 3 mL of plasma were sampled, put in plastic tubes, snap frozen in liquid nitrogen and stored at −80° C. until assay. Then animals were euthanized by intracardiac injection of overdosed pentobarbital. This method is one of the recommended methods for euthanasia by the European authorities (French decree No. 2013-118, dated Feb. 1, 2013 publishing the European directive 2010/63/UE. J.Offic. Rp. Fr. 2013; Text 24 out of 130). Immediately after euthanasia, samples from both eyes were quickly and carefully taken, put in plastic tubes, weighed, snap frozen in liquid nitrogen and stored at −80° C. until assay. Content of Comp-02 was determined in ocular samples and plasma following an established RRLCMS/MS method. The results are presented in Tables 5-7 and are expressed as mean values for the different pharmacokinetic parameters. Chromatogram integration was done using MassHunter software. Apparent Cmax and Tmax, T½, AUC1-48 h were calculated by Excel® software. Concentrations were expressed in ng/g or ng/mL of tissue/eye compartment.

[2] = Ocular pharmacokinetics of Comp-02 after topical administration (instillation) in rabbit; format: in vivo, pigmented HY79b rabbits; details: male, pigmented HY79b, topical or ocular, 50 μl of 1 mg/mL in both eyes; for Cmax: single instillation 50 μl (1 mg/mL) in both eyes; for Tmax / half-life / AUC: topical; for half-life: calculated from the Tmax value; for AUC: read-out: AUC1-48 hours
Procedure: as §1

HL-1 cells = assay: Viability of LPS-challenged HL-1 cardiomyocytes; format: cell-based, mouse; details: 10 nM, 100 nM or 1 μM, 1 μg/mL LPS, 24 h
Procedure: (§2) A cardiomyocyte cell line was used (mouse derived immortalized cardiomyocytes, HL-1 cells). Cells were either treated with vehicle (0.01% ethanol) or different concentrations of test compound (Comp-02: cE=10 nM, 100 nM or 1 μM). Simultaneously, the cells were challenged with 1 μg/mL lipopolysaccharide (LPS). After 24 h of incubation, the cells were processed to measure viability.
as §2, with “In order to investigate the anti-inflammatory potential of compounds being part of the invention in vitro, a cardiomyocyte” for “A cardiomyocyte”, “measure viability (FIG. 2) and release of the pro-inflammatory cytokine TNF alpha (FIG. 3).” for “measure viability.”

[3] = Ocular pharmacokinetics of Comp-02 after intravitreal injection in rabbit; format: in vivo, pigmented HY79b rabbits; details: for AUC / Tmax / half-life / Cmax: male, pigmented HY79b; for AUC / Tmax / half-life: intravitreal; for AUC: read-out: AUC1-48 hours; for half-life: calculated from the Tmax value; for Cmax: topical or ocular, single vitreal injection of 50 μl (1 mg/mL) in both eyes
Procedure: as §1

[4] = Ocular pharmacokinetics of Comp-02 after topical administration (instillation) in rabbit; format: in vivo, pigmented HY79b rabbits; details: checked by ophthalmoscopy
[5] = system: double transgenic rats (dTGR), cardiac tissue; assay: Cardiac inflammation (ED1 macrophage infiltration) in dTGR rat model of severe hypertension and end-organ damage; format: in vivo; details: 1.33 mg/kg twice daily by gavage for 21 days, compared to vehicle treated dTGRs
Excerpt: (§3) The aim of this study was to assess and compare the effect of continuous oral treatment of a metabolically robust analog of 17,18-EEQ (Comp-02) or vehicle (isotonic salt solution) on physiological parameters, clinical chemistry and end-organ damage in male double transgenic rats (dTGR). Non-treated Sprague-Dawley rats (SD) of same genetic background were used as control. Double transgenic rats, overexpressing the human renin and angiotensinogen genes, develop severe hypertension and are a model for Ang-II induced end-organ damage with cardiac hypertrophy and kidney failure. Moreover, the dTGR model features severe […], cardiac hypertrophy and nephrosclerosis with marked fibrosis and inflammation.
(§4) Before start of the experiment the animals were randomly assigned to either compound or vehicle treatment. […] Comp-02 was prepared in 61.6 ppm Na2CO3 and 0.9% NaCl ready to use solution for application, while dTGR animals were dosed twice daily with 0.9% NaCl ready to use solution for vehicle control. […] Samples were analysed using a Zeiss Axioplan-2 imaging microscope with the digital image-processing program AxioVision 4.8. […] Data were expressed as sum of 20 randomly chosen view fields, non-overlapping fields per section. […]

[6] = system: TNF alpha release from the HL-1 cells; assay: TNF alpha release from HL-1 cardiomyocytes; format: cell-based, mouse; details: 24 h
Procedure: as §2, with “release of the pro-inflammatory cytokine TNF alpha.” for “viability.”
as §2, with “In order to investigate the anti-inflammatory potential of compounds being part of the invention in vitro, a cardiomyocyte” for “A cardiomyocyte”, “measure viability (FIG. 2) and release of the pro-inflammatory cytokine TNF alpha (FIG. 3).” for “measure viability.”

[7] = Ocular pharmacokinetics of Comp-02 after intravitreal injection in rabbit; format: in vivo, pigmented HY79b rabbits; details: ocular examination with a slit lamp
[8] = system: double transgenic rats (dTGR), renal tissue; assay: Renal inflammation (ED1 macrophage infiltration) in dTGR rat model of severe hypertension and end-organ damage; format: in vivo; details: 1.33 mg/kg twice daily by gavage for 21 days, compared to vehicle treated dTGRs
Excerpt: as §3, §4

[9] = other: intravitreal injection, 50 μl of 1 mg/mL in both eyes, vitreous
[10] = other: intravitreal, 50 µg/eye, choroid
[11] = other: intravitreal, 50 µg/eye, plasma
[12] = other: intravitreal, 50 µg/eye, retina

With `CNC(=O)C(=O)NCCCC/C=C\CCCCCCCOCC(=O)O` [Comp-02, 2-((13-(2-(methylamino)-2-oxoacetamido)tridec-8(Z)-en-1-yl)oxy)acetic acid] the “Comp-02 content (below lower limit of detection)” value ([1]; aqueous humor samples, except for one out of 15 animals) was < 0.1 ng/10 μl injected, the Cmax ([1]; aqueous humor) was 8 ng/mL and the Tmax ([1]; aqueous humor) was 1 h. For the same compound, the AUC ([1]; aqueous humor) was 12 ng·h/mL, the Cmax ([1]; choroid) was 246 ng/g and the Tmax ([1]; choroid) was 1 h. The half-life ([1]; choroid) was 9 h, the AUC ([1]; choroid) was 1390 ng·h/mL and the Cmax ([1]; plasma) was 1210 ng/mL. For the same compound, the Tmax ([1]; plasma) was 1 h, the half-life ([1]; plasma) was 6 h and the AUC ([1]; plasma) was 6330 ng·h/mL. The Cmax ([1]; retina) was 15 ng/g, the Tmax ([1]; retina) was 4 h and the “Comp-02 content (below lower limit of detection)” value ([1]; retina samples, except for two out of 15 animals) was < 0.1 ng/10 μl injected. The Cmax ([2]; aqueous humor) was 88 ng/mL, the Tmax ([2]; aqueous humor) was 1 h and the half-life ([2]; aqueous humor) was 1 h. It also gave an AUC ([2]; aqueous humor) of 324 ng·h/mL, a Cmax ([2]; choroid) of 79 ng/g and a Tmax ([2]; choroid) of 1 h. For the same compound, the half-life ([2]; choroid) was 0.7 h, the Cmax ([2]; plasma) was 31 ng/mL and the Tmax ([2]; plasma) was 0.5 h. The half-life ([2]; plasma) was 5.4 h, the AUC ([2]; plasma) was 262 ng·h/mL and the Cmax ([2]; retina) was 24 ng/g. For the same compound, the Tmax ([2]; retina) was 1 h, the “Effect on LPS-induced reduction in cell viability (cytotoxic effect)” value (HL-1 cells) was “dose-dependently reversed” and the “Ocular exposure in the posterior eye, comparison of routes” value ([3]; intravitreal injection compared to oral and topical administration) was “highest ocular exposures”. It also gave an AUC ([3]; other: intravitreal injection, 50 μl of 1 mg/mL in both eyes, choroid) of 63300 ng·h/mL, an AUC ([3]; other: intravitreal injection, 50 μl of 1 mg/mL in both eyes, plasma) of 287 ng·h/mL and an AUC ([3]; other: intravitreal injection, 50 μl of 1 mg/mL in both eyes, retina) of 79900 ng·h/mL. It also gave a Tmax [3, 9] of 1 h, an AUC [3, 9] of 55400 ng·h/mL and a Tmax [3, 10] of 1 h. The half-life [3, 10] was 2.4 h, the Tmax [3, 11] was 2 h and the half-life [3, 11] was 4.2 h. It also gave a Tmax [3, 12] of 1 h, a half-life [3, 12] of 2.6 h and a half-life ([3]; other: intravitreal, 50 µg/eye, vitreous) of 4.6 h. It also gave a Cmax ([3]; 50 μl of 1 mg/mL in both eyes, choroid) of 15000 ng/g, a Cmax ([3]; 50 μl of 1 mg/mL in both eyes, plasma) of 19 ng/mL and a Cmax ([3]; 50 μl of 1 mg/mL in both eyes, retina) of 10100 ng/g. For the same compound, the Cmax ([3]; 50 μl of 1 mg/mL in both eyes, vitreous) was 6650 ng/mL, the “Macroscopic tolerability of the Comp-02 formulation” value [4] was “very well tolerated” and the “Macrophage infiltration (ED1 positive cells) in cardiac tissue” value [5] was “significant reduction”. For the same compound, the “LPS-induced TNF alpha release” value ([6]; 10 nM, 100 nM or 1 μM, 1 μg/mL LPS) was “significantly and dose-dependently reduced”, the “Influence on TNF alpha production, compound alone” value ([6]; Comp-02 alone (no LPS)) was “did not have an influence” and the “Macroscopic tolerability of the Comp-02 formulation” value [7] was “very well tolerated”. For the same compound, the “Macrophage infiltration (ED1 positive cells) in renal tissue” value [8] was “significant reduction”.
